In patent publication EP3932918A1, “EUTECTIC CRYSTAL FORMED BY APIXABAN AND CARBOXYLIC ACID, AND PREPARATION METHOD THEREFOR” (Zhejiang Tianyu Pharmaceutical Co., Ltd., priority 2019, dated 2021):

Experiment: Dissolution rate test of Apixaban/carboxylic acid co-crystal (paddle method, Chinese Pharmacopoeia guidelines; equilibrium solubility in dissolution medium)
Format: physicochemical
Conditions: relative to Apixaban; dissolution medium 0.1mol/L hydrochloric acid, 37±0.5°C, paddle method 100rpm, 900ml, 500 mg sample powder
Protocol: Test Example 1: Dissolution rate test of Apixaban/carboxylic acid co-crystal
According to the dissolution rate test guidelines in the current Chinese Pharmacopoeia, a dissolution rate experiment was designed to respectively investigate the dissolution rates of the five Apixaban/carboxylic acid co-crystals prepared by the present invention. The specific scheme is as follows:
Table 6 Dissolution equipment and parameters
0.1mol/L hydrochloric acid solution: 9ml of hydrochloric acid was added into 1000ml of water and stirred well.
After the dissolution conditions were reached, 500 mg of sample powder were weighed and put into a dissolution cup, rotated, and immediately counted the time, after 1, 2, 3, 4, 6, 8, 10, 12, 14, 16, 18, 20, 22 and 24 hours, sampled with a sampling needle equipped with a 10µm polymeric polyethylene filter membrane, and filtered on-line through a 0.45µm polyvinylidene fluoride (PVDF) filter membrane.

| dissolution rate (times that of Apixaban) | Substance |
| --- | --- |
| 1.44 times | Apixaban/D-malic acid co-crystal [crystal form II] |
| 1.4 times | Apixaban/malonic acid co-crystal [crystal form I] |
